The test system of one experiment is Human betaherpesvirus 5. As to the kind of experiment: Antiviral activity against recombinant HCMV AD169 infected in human foreskin fibroblasts measured after 7 days by GFP-based multi-round replication assay relative to control. Type of experiment: functional, organism-based. Particulars: Human betaherpesvirus 5, AD169, 168 h.
The target of experiment [1] is Epidermal growth factor receptor (Homo sapiens, UniProt P00533, L858R/T790M). As to the kind of experiment: Inhibition of human recombinant GST-tagged EGFR L858R/T790M mutant (catalytic domain 695 to end) expressed in baculovirus-infected Sf9 cells assessed as reduction in phosphorylation of polyglutamic acid/tyrosine incubated for 60 mins by ADP-Glo assay. Background: ADP-Glo first removes unused ATP, then detects ADP through luciferase.

Experiment [2] can be described thus: Antiproliferative activity against human NHBE cells assessed as reduction in cell viability incubated for 72 hrs by MTT assay. Type of experiment: cell-based. (In general: Tetrazolium dyes change colour on reduction, which living cells bring about.)
Experiment [3] deals with T1, Epidermal growth factor receptor (Homo sapiens, UniProt P00533).
Description: Inhibition of EGFR (unknown origin)
In experiment [4] the target is T1, Epidermal growth factor receptor. As to the kind of experiment: Inhibition of human recombinant GST-tagged EGFR (catalytic domain 695 to end) expressed in baculovirus-infected Sf9 cells assessed as reduction in phosphorylation of polyglutamic acid/tyrosine incubated for 60 mins by ADP-Glo assay.
Experiment [5] addresses Epidermal growth factor receptor (Homo sapiens, UniProt P00533, T790M). As to the kind of experiment: Inhibition of EGFR T790M mutant (unknown origin).
Experiment [6] deals with T2, Vascular endothelial growth factor receptor 2 (Homo sapiens, UniProt P35968). As to the kind of experiment: Inhibition of human recombinant GST-tagged VEGFR2 (catalytic domain 805 to 1356 residues) expressed in Sf9 insect cells incubated for 45 mins by Kinase-Glo assay. For orientation: Kinase-Glo measures the ATP left after a reaction by luminescence.
Experiment [7] addresses T2, Vascular endothelial growth factor receptor 2. As to the kind of experiment: Inhibition of VEGFR2 in human HUVEC assessed as reduction in cell proliferation at 10 uM incubated for 72 hrs by alamarBlue assay. The experiment is classed as cell-based.
Experiment [8] has the same target. As to the kind of experiment: Inhibition of VEGFR2 (unknown origin).
A further experiment deals with Plasmodium falciparum. As to the kind of experiment: Antimalarial activity against Plasmodium falciparum 3D7 infected in human erythrocytes after 72 hrs by SYBR Green1 dye based fluorescence assay relative to control. The experiment is classed as functional, organism-based. Particulars: 3D7, 72 h.
Experiment [9] concerns the target T3, Aurora kinase A (Homo sapiens) (UniProt O14965).
T3 sequence (whole entry): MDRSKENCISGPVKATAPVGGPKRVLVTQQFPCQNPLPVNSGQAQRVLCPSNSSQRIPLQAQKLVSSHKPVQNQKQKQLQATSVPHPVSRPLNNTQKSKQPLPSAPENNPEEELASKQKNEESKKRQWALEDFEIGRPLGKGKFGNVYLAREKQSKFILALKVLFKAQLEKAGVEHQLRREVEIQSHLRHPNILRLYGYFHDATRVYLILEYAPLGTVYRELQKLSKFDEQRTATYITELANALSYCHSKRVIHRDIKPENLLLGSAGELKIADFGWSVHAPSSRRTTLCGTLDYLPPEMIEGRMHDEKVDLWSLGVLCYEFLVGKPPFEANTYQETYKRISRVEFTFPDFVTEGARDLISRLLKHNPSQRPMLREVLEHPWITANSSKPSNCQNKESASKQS
As to the kind of experiment: Inhibition of Aurora A in human MCF7 cells relative to control. Particulars: concentration not given here. Type of experiment: cell-based.

Experiment [10] is described as follows: Cytotoxicity against human KYSE10 cells assessed as reduction in cell growth at 2 nM incubated for 48 and 72 hrs by MTT assay. Type of experiment: functional.
Experiment [11] is described as follows: Cytotoxicity against human Embryonic stem cells assessed as reduction in cell growth at 2 nM incubated for 48 and 72 hrs by MTT assay. Type of experiment: functional.
Experiment [12] in a line: Cytotoxicity against human EC1 cells assessed as reduction in cell growth at 2 nM incubated for 48 and 72 hrs by MTT assay. The experiment is classed as functional.
The nature of experiment [13]: Cytotoxicity against human HKESC1 cells assessed as reduction in cell growth at 2 nM incubated for 48 and 72 hrs by MTT assay. Type of experiment: functional.
Experiment [14] is described as follows: Cytotoxicity against human HKESC2 cells assessed as reduction in cell growth at 2 nM incubated for 48 and 72 hrs by MTT assay. The experiment is classed as functional.
Experiment [15] can be described thus: Cytotoxicity against human SLMT1 cells assessed as reduction in cell growth at 2 nM incubated for 48 and 72 hrs by MTT assay. Type of experiment: functional.
Experiment [16] concerns the target T4, Proto-oncogene tyrosine-protein kinase Src (Homo sapiens, UniProt P12931). As to the kind of experiment: Inhibition of human recombinant Src expressed in baculovirus infected Sf9 insect cells assessed as reduction in phosphorylation of polyglutamic acid/tyrosine incubated for 15 mins by ELISA.
Experiment [17] in a line: Antitumor activity against rat FRE-erbB2 cells xenografted in CD-1 mouse assessed as tumor growth inhibition at 50 mg/kg, po after 1 hr by ELISA relative to control. The experiment is classed as functional. The following applies: read-out: TGI.
The target of experiment [18] is Vascular endothelial growth factor receptor 3 (Homo sapiens, UniProt P35916). As to the kind of experiment: Inhibition of VEGFR3 (unknown origin).
Experiment [19] addresses Receptor tyrosine-protein kinase erbB-4 (Homo sapiens, UniProt Q15303). As to the kind of experiment: Inhibition of HER4 (unknown origin).
Experiment [20] deals with T4, Proto-oncogene tyrosine-protein kinase Src. As to the kind of experiment: Inhibition of SRC (unknown origin).
The test system of a further experiment is DU-145. As to the kind of experiment: Antitumor activity against human DU145 cells xenografted in CB17 SCID model mouse assessed as inhibition of tumor growth at 25 mg/kg, po administered for 54 days. Type of experiment: functional. Details: scale not given: the % may be the effect or the level left.
A further experiment has as its system A549. As to the kind of experiment: In vivo inhibition of neo-vascularisation in human A549 cells xenografted in athymic mouse at 50 mg/kg/day, po administered for 5 days measured after 24 hrs of last dose by light microscopy. The experiment is classed as functional.

T2 sequence (P35968 whole entry, the tested form may be a part): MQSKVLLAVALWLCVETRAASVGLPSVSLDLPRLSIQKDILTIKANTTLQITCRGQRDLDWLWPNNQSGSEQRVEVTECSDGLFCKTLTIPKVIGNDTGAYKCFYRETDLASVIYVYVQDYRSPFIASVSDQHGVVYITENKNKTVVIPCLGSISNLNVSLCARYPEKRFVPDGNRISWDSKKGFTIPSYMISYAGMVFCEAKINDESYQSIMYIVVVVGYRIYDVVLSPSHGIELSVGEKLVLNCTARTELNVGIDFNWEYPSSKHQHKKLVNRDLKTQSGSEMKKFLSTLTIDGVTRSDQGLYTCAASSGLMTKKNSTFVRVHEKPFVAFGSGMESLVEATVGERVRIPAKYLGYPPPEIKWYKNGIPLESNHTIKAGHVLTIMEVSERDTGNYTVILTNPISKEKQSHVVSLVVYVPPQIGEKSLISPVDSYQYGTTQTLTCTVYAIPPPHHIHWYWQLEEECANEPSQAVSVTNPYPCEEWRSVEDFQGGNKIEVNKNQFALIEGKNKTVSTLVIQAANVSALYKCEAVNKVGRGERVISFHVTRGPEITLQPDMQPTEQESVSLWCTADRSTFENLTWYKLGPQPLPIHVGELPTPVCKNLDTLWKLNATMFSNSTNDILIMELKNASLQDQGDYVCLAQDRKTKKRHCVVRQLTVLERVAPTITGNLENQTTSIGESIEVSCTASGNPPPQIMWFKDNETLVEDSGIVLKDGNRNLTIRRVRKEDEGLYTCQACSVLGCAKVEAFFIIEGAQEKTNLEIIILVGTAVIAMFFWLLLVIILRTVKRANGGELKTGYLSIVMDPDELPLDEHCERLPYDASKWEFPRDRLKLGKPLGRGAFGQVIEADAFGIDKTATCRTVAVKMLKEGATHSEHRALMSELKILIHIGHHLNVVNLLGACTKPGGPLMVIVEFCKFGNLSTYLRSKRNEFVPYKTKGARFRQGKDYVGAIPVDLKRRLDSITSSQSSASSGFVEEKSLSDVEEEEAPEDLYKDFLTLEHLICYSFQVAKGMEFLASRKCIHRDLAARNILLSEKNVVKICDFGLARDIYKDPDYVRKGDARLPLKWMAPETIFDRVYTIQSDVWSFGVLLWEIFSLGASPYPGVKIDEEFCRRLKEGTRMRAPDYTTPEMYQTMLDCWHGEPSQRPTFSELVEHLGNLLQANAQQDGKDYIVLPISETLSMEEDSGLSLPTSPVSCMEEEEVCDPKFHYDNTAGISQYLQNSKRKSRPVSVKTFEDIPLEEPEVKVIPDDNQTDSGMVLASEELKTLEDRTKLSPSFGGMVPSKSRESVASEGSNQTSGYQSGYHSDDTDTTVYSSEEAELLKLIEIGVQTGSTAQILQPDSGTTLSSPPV
T1 sequence (P00533 whole entry, the tested form may be a part): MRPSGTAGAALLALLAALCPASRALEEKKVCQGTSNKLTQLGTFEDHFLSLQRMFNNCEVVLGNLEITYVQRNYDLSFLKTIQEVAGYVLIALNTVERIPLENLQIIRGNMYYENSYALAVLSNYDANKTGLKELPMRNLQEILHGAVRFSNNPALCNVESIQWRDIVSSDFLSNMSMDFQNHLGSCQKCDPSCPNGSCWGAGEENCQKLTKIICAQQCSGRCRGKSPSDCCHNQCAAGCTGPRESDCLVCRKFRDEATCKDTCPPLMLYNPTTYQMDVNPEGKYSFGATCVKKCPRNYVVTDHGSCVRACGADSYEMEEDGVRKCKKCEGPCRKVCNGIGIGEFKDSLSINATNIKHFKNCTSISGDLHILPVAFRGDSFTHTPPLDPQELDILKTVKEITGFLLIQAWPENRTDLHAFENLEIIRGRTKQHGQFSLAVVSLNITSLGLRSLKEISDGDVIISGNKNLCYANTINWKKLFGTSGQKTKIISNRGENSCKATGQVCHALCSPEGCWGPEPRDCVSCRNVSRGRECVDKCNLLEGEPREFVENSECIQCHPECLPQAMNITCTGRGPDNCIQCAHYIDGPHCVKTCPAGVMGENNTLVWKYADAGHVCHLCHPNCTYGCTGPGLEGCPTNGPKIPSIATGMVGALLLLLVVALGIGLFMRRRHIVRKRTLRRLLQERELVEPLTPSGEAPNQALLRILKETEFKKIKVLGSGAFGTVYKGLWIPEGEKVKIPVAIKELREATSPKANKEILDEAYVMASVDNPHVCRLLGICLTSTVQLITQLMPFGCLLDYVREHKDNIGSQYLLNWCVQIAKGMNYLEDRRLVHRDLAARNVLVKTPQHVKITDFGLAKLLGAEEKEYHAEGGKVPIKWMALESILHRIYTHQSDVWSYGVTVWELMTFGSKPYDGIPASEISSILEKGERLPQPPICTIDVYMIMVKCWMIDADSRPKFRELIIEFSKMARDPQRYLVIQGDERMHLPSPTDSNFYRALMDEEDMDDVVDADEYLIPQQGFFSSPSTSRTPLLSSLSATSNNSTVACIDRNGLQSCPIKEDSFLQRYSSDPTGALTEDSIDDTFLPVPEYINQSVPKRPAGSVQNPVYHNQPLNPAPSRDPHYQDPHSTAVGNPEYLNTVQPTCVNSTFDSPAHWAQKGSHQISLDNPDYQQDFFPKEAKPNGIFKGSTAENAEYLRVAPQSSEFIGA
Chain of Receptor tyrosine-protein kinase erbB-4 (Q15303 whole entry): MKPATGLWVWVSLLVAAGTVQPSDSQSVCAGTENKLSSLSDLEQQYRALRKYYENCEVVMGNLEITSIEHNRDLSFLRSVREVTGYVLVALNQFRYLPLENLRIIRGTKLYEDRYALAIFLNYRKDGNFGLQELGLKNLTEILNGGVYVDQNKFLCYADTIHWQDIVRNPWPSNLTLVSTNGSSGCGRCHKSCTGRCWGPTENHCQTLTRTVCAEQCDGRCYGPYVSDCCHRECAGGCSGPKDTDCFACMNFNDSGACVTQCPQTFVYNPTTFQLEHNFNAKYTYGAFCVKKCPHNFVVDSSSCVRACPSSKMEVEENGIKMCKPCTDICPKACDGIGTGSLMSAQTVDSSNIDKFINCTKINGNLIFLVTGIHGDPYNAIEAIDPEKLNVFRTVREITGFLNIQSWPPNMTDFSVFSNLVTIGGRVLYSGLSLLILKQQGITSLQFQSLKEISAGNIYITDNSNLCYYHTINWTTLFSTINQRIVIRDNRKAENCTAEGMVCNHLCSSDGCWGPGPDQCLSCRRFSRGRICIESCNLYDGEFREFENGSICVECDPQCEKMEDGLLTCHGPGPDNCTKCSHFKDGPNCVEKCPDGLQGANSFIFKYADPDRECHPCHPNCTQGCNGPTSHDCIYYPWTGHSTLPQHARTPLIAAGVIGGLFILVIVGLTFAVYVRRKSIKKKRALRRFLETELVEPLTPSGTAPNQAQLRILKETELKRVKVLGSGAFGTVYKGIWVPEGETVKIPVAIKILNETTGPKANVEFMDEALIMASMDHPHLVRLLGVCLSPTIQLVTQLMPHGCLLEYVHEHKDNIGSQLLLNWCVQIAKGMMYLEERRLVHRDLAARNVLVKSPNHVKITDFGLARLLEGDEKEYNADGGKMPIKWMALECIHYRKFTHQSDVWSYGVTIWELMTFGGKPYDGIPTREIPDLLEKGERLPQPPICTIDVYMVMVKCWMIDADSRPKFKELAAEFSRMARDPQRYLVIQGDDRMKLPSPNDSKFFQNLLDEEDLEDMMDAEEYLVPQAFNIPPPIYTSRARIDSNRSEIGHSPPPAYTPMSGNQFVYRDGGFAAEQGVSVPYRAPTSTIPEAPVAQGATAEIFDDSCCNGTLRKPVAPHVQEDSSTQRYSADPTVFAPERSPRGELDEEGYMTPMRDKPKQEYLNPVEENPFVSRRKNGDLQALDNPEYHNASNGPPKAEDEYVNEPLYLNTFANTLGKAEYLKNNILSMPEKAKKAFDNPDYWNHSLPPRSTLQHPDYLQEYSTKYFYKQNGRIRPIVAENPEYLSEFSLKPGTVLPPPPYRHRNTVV
T4 sequence (P12931 2-536 limits assumed): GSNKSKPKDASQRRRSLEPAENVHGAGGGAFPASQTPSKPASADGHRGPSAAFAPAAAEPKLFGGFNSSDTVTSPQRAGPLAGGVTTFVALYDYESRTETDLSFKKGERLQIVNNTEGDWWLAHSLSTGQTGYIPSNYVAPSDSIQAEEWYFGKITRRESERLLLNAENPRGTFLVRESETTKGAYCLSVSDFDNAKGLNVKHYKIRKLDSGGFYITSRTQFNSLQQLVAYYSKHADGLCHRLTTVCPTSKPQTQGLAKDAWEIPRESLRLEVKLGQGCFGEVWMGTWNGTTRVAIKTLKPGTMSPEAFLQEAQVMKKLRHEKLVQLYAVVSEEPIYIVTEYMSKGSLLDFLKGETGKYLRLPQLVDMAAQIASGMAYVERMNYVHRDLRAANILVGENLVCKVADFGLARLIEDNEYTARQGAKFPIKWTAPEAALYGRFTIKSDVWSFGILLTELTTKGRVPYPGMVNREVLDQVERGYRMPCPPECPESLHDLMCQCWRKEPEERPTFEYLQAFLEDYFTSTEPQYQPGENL

Consider `C[C@H]1[C@@H](CC(=O)Nc2ccc3ncnc(Nc4ccc(Cl)c(Cl)c4)c3c2)O[C@@H]2O[C@@]3(C)CC[C@H]4[C@H](C)CC[C@@H]1[C@@]24OO3`, for which, in the experiment with Human betaherpesvirus 5, the EC50 lay within 150000 to 210000 nM.
Turning to `C=CC(=O)Nc1ccc(Nc2ncnc3cc(OC)c(OCCN4CCOCC4)cc23)cc1`, the IC50 is 4.3 nM in [1]; above 34000 nM in experiment [2]; 105 nM in experiment [3]; 105 nM in experiment [4]; 4.3 nM in experiment [5].
For `COc1cc2ncnc(-n3ncc4cc(NC(=O)Nc5ccc(C)c(Cl)c5)ccc43)c2cc1OC`, in [6], the IC50 came to 5 nM. Moreover, the inhibition in experiment [7] was 80 to 99.6%.
Turning to `C=CC(=O)Nc1cc2c(Nc3ccc(Br)cc3F)ncnc2cc1OCCCC(=O)CN(C)C`, the 50% inhibitory concentration (IC50) is 103 nM in experiment [8] and 2 nM in [3].
As for `C[C@H]1[C@H](OC(=O)CCC(=O)Nc2ccc3ncnc(Nc4ccc(Cl)c(Cl)c4)c3c2)O[C@@H]2O[C@@]3(C)CC[C@H]4[C@H](C)CC[C@@H]1[C@@]24OO3`, the EC50 in the experiment on Plasmodium falciparum was 1.4 nM; with Human betaherpesvirus 5 it was 150000 to 210000 nM.
Regarding `COc1cc2c(Nc3ccc(C(=O)Nc4ccccc4)cc3)ncnc2cc1O`, the inhibition in [9] was 60%.
With `CN(C)C/C=C/C(=O)Nc1cc2c(Nc3ccc(F)c(Cl)c3)ncnc2cc1O[C@H]1CCOC1` [AFATINIB], the inhibition at 0.002 µM in [10], in [11], in experiment [12], in experiment [13], in experiment [14] and in experiment [15] was above 95% throughout.
Take `COc1ccc(Cl)c(Nc2ncnc3cc(OCC4CCN(C)CC4)c(OC)cc23)c1` [AZM-475271]: in experiment [16], the IC50 was 5 nM.
In the case of `COCC(=O)NC/C=C/c1ccc2ncnc(Nc3ccc(Oc4ccc(C)nc4)c(C)c3)c2c1` [CP-724714], the inhibition in vivo at 50 mg/kg in [17] was 50%.
In the case of `COc1cc2ncnc3c2cc1OCCCCCN(C)Cc1ccc(Br)cc1N3` [JNJ-26483327], the IC50 was 11 to 99 nM in experiment [18], 11 to 99 nM in [19], 11 to 99 nM in experiment [20] and below 10 nM in experiment [3].
In the case of `CN1CCN(CCOc2cc(OC3CCOCC3)c3c(Nc4c(Cl)ccc5c4OCO5)ncnc3c2)CC1` [SARACATINIB], in the experiment on DU-145, the Activity is listed as 45%.
In the experiment with A549, `COc1cc2/c(=N/c3ccc(Br)cc3F)nc[nH]c2cc1OCC1CCN(C)CC1` [VANDETANIB] displayed an inhibition in vivo at 50 mg/kg/day of 63%.
With `C[C@@H]1COC(Nc2ccc3ncnc(Nc4ccc(OCc5nccs5)c(Cl)c4)c3c2)=N1` [VARLITINIB], the IC50 in experiment [19] was found to be 4 nM.

Broadly, the EC50 is the concentration giving half of the maximal effect. By IC50 is commonly meant the midpoint of a concentration-inhibition curve. In general, inhibition refers to how much of the control response was suppressed.

For the origin of these results see ChEMBL document CHEMBL4342409, “Recent advancements of 4-aminoquinazoline derivatives as kinase inhibitors and their applications in medicinal chemistry” (Eur J Med Chem, 2019).
